Legend:
H460 cells = test: β-gal expression by X-gal staining after Ad/CMV/β-gal infection of CDDP-treated cells; type: cell-based, human
Experimental: Gene Delivery Protocol: In vitro gene delivery was performed by incubating cells in six-well plates (Falcon Plastics, Lincoln Park, N.J.) for two hours with Adv/CMV/β-gal in appropriate medium supplemented with 2% FCS. The multiplicity of infection (MOI: number of viral particles per target cell) was based on cell counts of untreated wells. Fresh, complete medium with the appropriate concentration of FCS was then added to the wells at the end of the infection period and cells were then incubated for 20 hours at 37° C., 5% CO2. After washing the cells with ice cold PBS, the cells were fixed with ice-cold 1.25% glutaraldehyde and stained with X-gal (5-bromo-4-chloro-3-indolyl-β-d-galactoside; Gibco BRL) as previously described (MacGregor et al., 1987). The transduction efficiency by Adv/CMV/β-gal was determined by the percentage of positive stained cells (blue) for β-galactosidase activity (1000 cells counted per well).
Time Course and Dose Response: To determine the time course of enhancement, H1299 and H460 cells were seeded in 6-well plates (2×10^5 cells/2 mls/well). After an overnight incubation period (37° C., 5% CO2), the initial medium was replaced with freshly prepared media (2 ml) containing 0.062 μg/ml CDDP (Sigma Chemicals, St. Louis, Mo.) (CDDP was prepared fresh by dissolving in distilled water) and the cells were then incubated for 24 hours at 37° C., with 5% CO2. CDDP-treated cells were then washed twice with PBS and subsequently infected with Ad/CMV/β-gal (MOI=1 for H1299 and MOI=5 for H460) on days 0, 1, 2, 3, 4, 5 or 6 following CDDP removal, to determine the time point at which maximal enhancement of expression was occurring. To establish the dose of CDDP needed to produce maximum enhancement, the cells were treated with different concentrations of CDDP (serial, 1:4 dilutions, ranging from 4 μg/ml to 0.0002 μg/ml, 5 ml per 60 mm dish) for 24 hours and subsequently incubated with Ad/CMV/β-gal 48 hours after removal of CDDP. […]

[1] = test system: subcutaneous H1299 tumors; test: In vivo CDDP-induced enhancement of β-gal gene expression in subcutaneous tumors; set-up: species or system nude mice
Experimental: Subcutaneous (SC) tumor nodules were created by injecting 1×10^7 H1299 cells suspended in 100 μl of PBS into the dorsal flank SC tissue of nude mice (nu/nu, Charles River, Wilmington, Mass.) that had received 350 Rads of total body irradiation. Tumors, approximately 250 mm^3 in size, consistently formed within 3 to 4 weeks of tumor cell implantation. Intratumoral injections of Ad/CMV/β-gal (5×10^8 viral particles) were done at 0, 2, 4, and 6 days following an intraperitoneal injection of CDDP (5 μg/g body weight in 100 μl of PBS) or PBS only (n=4 per groups). The tumors were excised 48 hours after adenovirus injection, washed in cold PBS, embedded in tissue freezing medium (Fisher Scientific, Houston, Tex.) and snap-frozen by immersion in 2-methylbutane which was chilled over liquid nitrogen. Serial frozen sections (8μ, thick) of the tumor mass obtained at 2-mm intervals were fixed and stained with X-gal as previously described (Ponder et al., 1991) and then counterstained with nuclear fast red (PolyScientific, Bay Shore, N.Y.). Quantitative assessment of β-gal gene expression (blue cells) was determined by digital image analysis (Samba 4000, Immuno Software, Version 3.0; Image Products International, Inc., Chantilly, Va.) for each tumor section. In vivo β-gal gene transduction of tumor masses was calculated as the mean of the percentage of blue cells per surface area of representative sections. Tumor-bearing animals receiving intraperitoneal injection of PBS and subsequent intratumoral injection of Ad/CMV/β-gal at identical time points, served as controls. The magnitude of enhancement was calculated by dividing values from CDDP and Ad/CMV/β-gal treated tumors by values from Ad/CMV/β-gal control treated tumors.

[2] = test system: p53 protein in H1299 cells; test: p53 immunocytochemical staining; type: cell-based, human; settings: 24 hrs after p53 gene transfer (MOI=5); prior CDDP exposure
Experimental: The infected cells were fixed 3.8% formalin at 12 and 24 hrs after transfection with Adv/CMV/p53 (MOI=5) with or without prior CDDP exposure and treated with 3% H2O2 in methanol for 5 minutes. The Vectastain kit (Vector Laboratories, Burlingana, Calif.) was used for the immunocytochemical staining. The primary antibody used was the mouse monoclonal anti-p53 antibody Pab 1801 (Oncogene Science, Manhasset, N.Y.). The secondary antibody was the biotinylated anti-mouse IgG antibody (Vector Laboratories). The avidin-biotin-peroxidase complex (ABC) kit was used to detect the antigen-antibody complex. The cells were counterstained with Harris Hematoxylin (Sigma, St. Louis, Mo.) and mounted with cover slips using Cytoseal 60.

H1299 cells = test: Cell growth after 24-hour incubation with CDDP; type: cell-based, human

## N.N.[Cl][Pt][Cl] [CDDP, cis-dichlorodimminocisplatin]
H460 cells; 24 h exposure, infected 48 hours after CDDP removal
  CDDP concentration at which maximal enhancement of β-gal gene expression occurred: 0.062 µg/mL
H460 cells; CDDP 0.062 μg/ml
  Time of gene transfer after drug treatment for maximal enhancement: about 48 hours
H460 cells; CDDP at 0.0039 and 1 μg/ml, infected 48 hours after CDDP removal
  Enhancement of β-gal gene expression: also an enhancement
[1]; Ad/CMV/β-gal injected 2 days after CDDP 5 μg/g ip (CDDP) or PBS (Ad/CMV/β-gal control)
  Percentage of positively stained cells in tumors: 46.0±4.3%
[1]; Ad/CMV/β-gal injected 4 days after CDDP 5 μg/g ip (CDDP) or PBS (Ad/CMV/β-gal control)
  Percentage of positively stained cells in tumors: 70.2±11%
[1]; Ad/CMV/β-gal injected 6 days after CDDP 5 μg/g ip (CDDP) or PBS (Ad/CMV/β-gal control)
  Percentage of positively stained cells in tumors: 23.4±5%
[1]; CDDP 5 μg/g ip and Ad/CMV/β-gal concurrently administered (day 0)
  Change in β-gal gene expression: no change
[1]; gene transfer 2 days after CDDP administration
  Fold increase of positively stained cells over respective control: 1.6 fold
[1]; gene transfer 4 days after CDDP administration
  Fold increase of positively stained cells over respective control: 2.8 fold
[2]
  p53 immunocytochemical staining: almost all of the CDDP-treated cells stained positive
H1299 cells; CDDP at 1 and 4 μg/ml for 24 hours, cells viable by trypan blue exclusion
  Cell growth, initial response: significant depression of growth to complete inhibition of proliferation
H1299 cells; CDDP concentrations lower than 0.25 μg/ml
  Cell growth compared to control cell populations: remained unchanged
